{"source": "paper PMC6008299", "about": "“Impact of race on dose selection of molecular-targeted agents in early-phase oncology trials” (British Journal of Cancer, 2018)", "key": {"advanced solid tumours [1]": {"tested_on": "advanced solid tumours", "experiment": "Tumour assessment RECIST 1.1, Japanese study", "assay_type": "in vivo, human", "settings": "Japan; of 25 patients", "procedure": "(§1) In both studies, the PK profile of DS-7423 was characterised during cycle 1 on days 1 and 8. For PD analysis, glucose, C-peptide, and Akt phosphorylation were measured in platelet-rich plasma collected at predose, 1, 2, 4, 6, and 24 h after dosing on days 1 and 15. Tumour assessment was performed every two cycles using Response Evaluation Criteria in Solid Tumours (RECIST) version 1.1 in both studies. 18F-Fluoro-2-deoxy-D-glucose positron emission tomography ([18F]-FDG) was performed as an exploratory endpoint at baseline and on day 4.[10]"}, "[2]": {"experiment": "Pharmacokinetics, both studies", "assay_type": "in vivo, human", "from_the_text": "In both studies, the PK profile of DS-7423 was characterised during cycle 1 on days 1 and 8. […] The data cut-off for the primary analysis occurred after all patients had either discontinued the study or completed 6 months of study drug treatment. Descriptive statistics were provided for selected demographic, safety, PK, and PD data by dose and time as appropriate. Descriptive statistics on continuous data included means, medians, standard deviations, and ranges, while categorical data were summarised using frequency counts and percentages. No inferential analysis to compare dose levels was performed due to limited sample sizes. The WinNonlin software was used for PK analysis."}, "[3]": {"tested_on": "CYP2C8, CYP3A4, and CYP3A5", "set-up": "method as in printed", "settings": "stated in discussion, ref not given; cited from earlier work"}, "[4]": {"experiment": "Pharmacokinetics in Japanese cohort (J102)", "assay_type": "in vivo, human", "procedure": "as §1\nThe data cut-off for the primary analysis occurred after all patients had either discontinued the study or completed 6 months of study drug treatment. Descriptive statistics were provided for selected demographic, safety, PK, and PD data by dose and time as appropriate. Descriptive statistics on continuous data included means, medians, standard deviations, and ranges, while categorical data were summarised using frequency counts and percentages. No inferential analysis to compare dose levels was performed due to limited sample sizes. The WinNonlin software was used for PK analysis."}, "advanced solid tumours [5]": {"tested_on": "advanced solid tumours", "experiment": "Tumour assessment RECIST 1.1, both studies", "assay_type": "in vivo, human", "settings": "either study", "procedure": "as §1"}, "advanced solid tumours [6]": {"tested_on": "advanced solid tumours", "experiment": "Tumour assessment RECIST 1.1, US study", "assay_type": "in vivo, human", "settings": "of 27 patients", "procedure": "as §1"}, "glucose": {"tested_on": "glucose", "experiment": "Pharmacodynamics: glucose after dosing", "assay_type": "in vivo, human", "settings": "decreased toward baseline at 24 h", "procedure": "as §1"}, "[7]": {"settings": "dose level 4, Japanese cohort (n = 3)"}, "[8]": {"settings": "dose level 8, Japanese cohort (n = 3)"}, "[9]": {"settings": "dose level 16, Japanese cohort (n = 2)"}, "[10]": {"settings": "dose level 160, Japanese cohort (n = 3)"}, "[11]": {"settings": "dose level 240, Japanese cohort (n = 5)"}}, "data": [{"smiles": "CC(=O)N1CCN(c2nc3c(N4CCOCC4)nc(-c4cnc(N)nc4)nc3n2CC(F)(F)F)C[C@H]1C", "note": "[DS-7423]", "values": [{"measurement": "Patients with tumour shrinkage and durable disease control", "setting": "advanced solid tumours [1]", "result": 5}, {"measurement": "median half-life", "setting": "[2]; 240-mg dose (MTD)", "result": 12, "unit": "h"}, {"measurement": "Difference in AUC and Cmax between the two populations", "setting": "[2]; MTD of 240 mg, Caucasian vs Asian", "result": "no significant differences"}, {"measurement": "median time to peak concentration (Tmax)", "setting": "[2]; across dose groups", "result": "2 to 4", "unit": "h"}, {"measurement": "Drug accumulation", "setting": "[2]; predose concentrations days 15 and 21 of cycle 1 and day 1 of cycle 2", "result": "no remarkable drug accumulation"}, {"measurement": "Involvement of CYP2C8, CYP3A4, and CYP3A5 in metabolism", "setting": "[3]", "result": "involved in the metabolism"}, {"measurement": "Mean AUCtau", "setting": "[4]; [7]", "result": 31.1, "unit": "ng·h/mL"}, {"measurement": "Mean Cmax", "setting": "[4]; [7]", "result": 3, "unit": "ng/mL"}, {"measurement": "T1/2", "setting": "[4]; [7]", "result": "6 to 7", "unit": "h"}, {"measurement": "Tmax", "setting": "[4]; [7]", "result": "2 to 4", "unit": "h"}, {"measurement": "Mean AUCtau", "setting": "[4]; [8]", "result": 84.2, "unit": "ng·h/mL"}, {"measurement": "Mean Cmax", "setting": "[4]; [8]", "result": 10, "unit": "ng/mL"}, {"measurement": "T1/2", "setting": "[4]; [8]", "result": "6 to 7", "unit": "h"}, {"measurement": "Tmax", "setting": "[4]; [8]", "result": "2 to 4", "unit": "h"}, {"measurement": "Mean AUCtau", "setting": "[4]; [9]", "result": 178, "unit": "ng·h/mL"}, {"measurement": "Mean Cmax", "setting": "[4]; [9]", "result": 18, "unit": "ng/mL"}, {"measurement": "T1/2", "setting": "[4]; [9]", "result": "6 to 7", "unit": "h"}, {"measurement": "Tmax", "setting": "[4]; [9]", "result": "2 to 4", "unit": "h"}, {"measurement": "Mean AUCtau", "setting": "[4]; [10]", "result": 1223.3, "unit": "ng·h/mL"}, {"measurement": "Mean Cmax", "setting": "[4]; [10]", "result": 61, "unit": "ng/mL"}, {"measurement": "T1/2", "setting": "[4]; [10]", "result": "6 to 7", "unit": "h"}, {"measurement": "Tmax", "setting": "[4]; [10]", "result": "2 to 4", "unit": "h"}, {"measurement": "Mean AUCtau", "setting": "[4]; [11]", "result": 1184.8, "unit": "ng·h/mL"}, {"measurement": "Mean Cmax", "setting": "[4]; [11]", "result": 83.6, "unit": "ng/mL"}, {"measurement": "T1/2", "setting": "[4]; [11]", "result": 12, "unit": "h"}, {"measurement": "Tmax", "setting": "[4]; [11]", "result": "2 to 4", "unit": "h"}, {"measurement": "Response by RECIST 1.1", "setting": "advanced solid tumours [5]", "result": "no PR or CR"}, {"measurement": "Patients with tumour shrinkage and durable disease control", "setting": "advanced solid tumours [6]", "result": 5}, {"measurement": "Hyperglycaemia (on-target effect)", "setting": "glucose", "result": "observed as early as 4 h after dosing"}]}]}
